# Calls of active or inactive are those of the source. For most assays here, no stated cut-off is given here; in the data, actives have a measured EC50 and inactives only a lower limit.
# Assays:
# [1] = target: T1, Fatty acid synthase (Homo sapiens, UniProt P49327); assay: inhibition of human FAS-TE enzyme activity – biochemical, endpoint fluorescence intensity, uHTS hits, dose response (AID 624327); assay type: functional;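 further: fluorescence from hydrolysis of an O-methyl fluorescein acyl ester substrate by the enzyme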
# [2] = target: T1, Fatty acid synthase; assay: inhibition of human FAS-TE enzyme activity – biochemical, kinetic fluorescence intensity, dose response (AID 624326); assay type: functional;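 further: rate of fluorescence rise from hydrolysis of a fluorogenic O-methyl fluorescein ester substrate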
# [3] = Luminescence Cell-Based Dose Response HTS to Identify Activators of Luciferase Translation or Activity in H4 […] Cells. [Related pubchem assays: 1829 (Project Summary), 1814 (Primary HTS)]; assay type: functional
# [4] = Luminescence Cell-Based Dose Confirmation HTS to Identify Activators of 5'UTR Stem-Loop Driven Alpha-Synuclein mRNA Translation in H4 Neuroglioblastoma Cells. [Related pubchem assays: 1829 (Project Summary), 1814 (Primary HTS)]; assay type: functional
# [5] = target: T2, Protein RecA (Mycobacterium tuberculosis, UniProt P9WHJ3); assay: Fluorescence Cell-Free Homogeneous Dose Retest to Identify Inhibitors of RecA-Intein Splicing Activity. [Related pubchem assays (depositor defined):AID2097, AID2223, AID489010, AID492950]; assay type: functional
# T2 sequence (P9WHJ3 whole entry): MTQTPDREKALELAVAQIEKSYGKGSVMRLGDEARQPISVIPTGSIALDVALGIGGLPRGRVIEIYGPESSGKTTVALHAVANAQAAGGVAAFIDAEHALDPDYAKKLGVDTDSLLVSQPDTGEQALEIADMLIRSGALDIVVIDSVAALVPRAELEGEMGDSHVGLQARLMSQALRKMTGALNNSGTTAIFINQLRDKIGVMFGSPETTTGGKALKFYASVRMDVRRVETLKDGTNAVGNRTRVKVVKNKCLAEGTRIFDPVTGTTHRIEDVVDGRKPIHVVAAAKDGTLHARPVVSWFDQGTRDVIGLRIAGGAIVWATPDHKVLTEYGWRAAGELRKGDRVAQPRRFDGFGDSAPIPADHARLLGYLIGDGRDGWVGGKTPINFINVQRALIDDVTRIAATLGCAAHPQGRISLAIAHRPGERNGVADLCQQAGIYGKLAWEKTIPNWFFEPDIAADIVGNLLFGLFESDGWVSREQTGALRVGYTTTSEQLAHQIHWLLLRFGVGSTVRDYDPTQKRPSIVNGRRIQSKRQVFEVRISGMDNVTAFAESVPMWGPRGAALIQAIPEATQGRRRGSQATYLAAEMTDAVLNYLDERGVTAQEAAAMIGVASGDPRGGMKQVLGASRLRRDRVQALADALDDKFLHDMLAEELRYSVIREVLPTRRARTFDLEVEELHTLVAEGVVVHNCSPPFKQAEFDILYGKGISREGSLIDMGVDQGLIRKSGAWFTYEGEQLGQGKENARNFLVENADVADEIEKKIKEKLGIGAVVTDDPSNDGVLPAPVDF
# [6] = target: T3, Replicative DNA helicase DnaB (Mycobacterium tuberculosis, UniProt P9WMR3); assay: DnaB intein splicing inhibitors, dose response, biochemical, cell-free fluorescence (AID 449749); assay type: functional
# T3 sequence (P9WMR3 whole entry): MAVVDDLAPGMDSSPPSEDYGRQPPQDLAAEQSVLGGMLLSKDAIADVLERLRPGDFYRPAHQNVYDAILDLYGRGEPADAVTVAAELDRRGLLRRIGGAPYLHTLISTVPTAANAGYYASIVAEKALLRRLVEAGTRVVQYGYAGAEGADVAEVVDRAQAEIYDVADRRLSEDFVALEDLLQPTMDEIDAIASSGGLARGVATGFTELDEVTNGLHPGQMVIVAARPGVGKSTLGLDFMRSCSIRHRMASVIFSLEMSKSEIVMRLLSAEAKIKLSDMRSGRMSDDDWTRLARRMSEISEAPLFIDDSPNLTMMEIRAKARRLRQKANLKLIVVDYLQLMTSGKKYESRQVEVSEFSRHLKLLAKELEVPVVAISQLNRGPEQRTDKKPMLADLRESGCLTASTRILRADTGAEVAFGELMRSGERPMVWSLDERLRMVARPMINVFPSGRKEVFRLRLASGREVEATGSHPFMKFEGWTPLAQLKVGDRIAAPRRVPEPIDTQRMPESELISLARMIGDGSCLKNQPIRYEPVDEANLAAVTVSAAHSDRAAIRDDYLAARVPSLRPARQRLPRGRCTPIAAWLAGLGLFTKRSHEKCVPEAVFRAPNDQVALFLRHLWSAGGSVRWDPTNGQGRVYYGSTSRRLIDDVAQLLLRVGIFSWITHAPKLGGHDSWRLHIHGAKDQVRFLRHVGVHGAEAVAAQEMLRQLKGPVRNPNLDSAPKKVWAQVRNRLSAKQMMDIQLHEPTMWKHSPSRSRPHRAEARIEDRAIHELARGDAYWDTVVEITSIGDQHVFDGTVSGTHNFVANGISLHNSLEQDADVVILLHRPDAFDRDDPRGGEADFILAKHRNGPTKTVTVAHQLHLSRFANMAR
# [7] = test system: H4; assay: Luminescence Cell-Based Dose Response HTS to Identify Activators of 5'UTR Stem-Loop Driven Prion Protein mRNA Translation in H4 Neuroglioblastoma Cells. [Related pubchem assays: 1829 (Project Summary), 1814 (Primary HTS)]; assay type: functional; details: Homo sapiens
# [8] = target: T4, Rac GTPase-activating protein 1 (Homo sapiens, UniProt Q9H0H5); assay: blockers of MgcRacGAP-driven Rac1 GTP hydrolysis – biochemical, ADP Hunter fluorescence, primary and confirmatory, confirmation (AID 624330); assay type: functional
# T4 sequence (Q9H0H5 whole entry): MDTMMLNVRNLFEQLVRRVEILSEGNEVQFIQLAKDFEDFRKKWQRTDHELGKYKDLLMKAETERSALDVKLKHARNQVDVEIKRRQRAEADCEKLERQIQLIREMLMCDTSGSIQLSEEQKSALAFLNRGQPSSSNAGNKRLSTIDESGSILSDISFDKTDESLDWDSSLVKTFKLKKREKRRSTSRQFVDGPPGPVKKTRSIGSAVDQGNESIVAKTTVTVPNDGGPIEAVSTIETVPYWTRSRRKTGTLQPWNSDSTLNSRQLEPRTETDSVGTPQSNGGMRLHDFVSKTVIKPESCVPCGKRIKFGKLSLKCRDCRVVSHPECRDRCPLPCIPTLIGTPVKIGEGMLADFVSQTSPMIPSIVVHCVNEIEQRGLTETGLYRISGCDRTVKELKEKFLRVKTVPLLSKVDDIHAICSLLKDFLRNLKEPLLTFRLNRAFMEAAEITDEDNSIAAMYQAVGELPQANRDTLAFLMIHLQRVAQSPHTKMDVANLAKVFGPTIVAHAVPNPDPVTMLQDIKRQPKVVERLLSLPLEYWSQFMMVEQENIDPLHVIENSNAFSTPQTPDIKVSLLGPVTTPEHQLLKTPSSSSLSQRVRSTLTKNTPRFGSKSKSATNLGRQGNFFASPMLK
# [9] = fluconazole-exposed Candida albicans growth modulators – fluorescence, retest, confirmation (AID 2467); assay type: functional, cell-based
# [10] = NIH-3T3 fibroblast cytotoxicity, dose response, cytotoxicity control, cell-based, fluorescence, Alamar Blue, secondary assay (AID 2327); assay type: functional;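 further: NIH-3T3 mouse fibroblasts cultured with fluconazole at 8 µg/mL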
# [11] = NIH3T3 cell viability loss – ATP luminescence, mouse fibroblasts, counter-screen, dose response (AID 2010); assay type: functional, cell-based;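 further: cells exposed to compound for about 90 hours before reading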
# [12] = Trypanosoma cruzi growth suppression in host cells – NIH3T3 host cells, beta-gal luminescence, confirmation (AID 2044); assay type: functional, cell-based;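 further: intracellular parasites grown in NIH/3T3 mouse fibroblasts as host cells; luminescent beta-galactosidase reporter signal from transgenic T. cruzi replicating inside host cells; inhibitors lower the luminescence signal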
# T1 sequence (P49327 whole entry): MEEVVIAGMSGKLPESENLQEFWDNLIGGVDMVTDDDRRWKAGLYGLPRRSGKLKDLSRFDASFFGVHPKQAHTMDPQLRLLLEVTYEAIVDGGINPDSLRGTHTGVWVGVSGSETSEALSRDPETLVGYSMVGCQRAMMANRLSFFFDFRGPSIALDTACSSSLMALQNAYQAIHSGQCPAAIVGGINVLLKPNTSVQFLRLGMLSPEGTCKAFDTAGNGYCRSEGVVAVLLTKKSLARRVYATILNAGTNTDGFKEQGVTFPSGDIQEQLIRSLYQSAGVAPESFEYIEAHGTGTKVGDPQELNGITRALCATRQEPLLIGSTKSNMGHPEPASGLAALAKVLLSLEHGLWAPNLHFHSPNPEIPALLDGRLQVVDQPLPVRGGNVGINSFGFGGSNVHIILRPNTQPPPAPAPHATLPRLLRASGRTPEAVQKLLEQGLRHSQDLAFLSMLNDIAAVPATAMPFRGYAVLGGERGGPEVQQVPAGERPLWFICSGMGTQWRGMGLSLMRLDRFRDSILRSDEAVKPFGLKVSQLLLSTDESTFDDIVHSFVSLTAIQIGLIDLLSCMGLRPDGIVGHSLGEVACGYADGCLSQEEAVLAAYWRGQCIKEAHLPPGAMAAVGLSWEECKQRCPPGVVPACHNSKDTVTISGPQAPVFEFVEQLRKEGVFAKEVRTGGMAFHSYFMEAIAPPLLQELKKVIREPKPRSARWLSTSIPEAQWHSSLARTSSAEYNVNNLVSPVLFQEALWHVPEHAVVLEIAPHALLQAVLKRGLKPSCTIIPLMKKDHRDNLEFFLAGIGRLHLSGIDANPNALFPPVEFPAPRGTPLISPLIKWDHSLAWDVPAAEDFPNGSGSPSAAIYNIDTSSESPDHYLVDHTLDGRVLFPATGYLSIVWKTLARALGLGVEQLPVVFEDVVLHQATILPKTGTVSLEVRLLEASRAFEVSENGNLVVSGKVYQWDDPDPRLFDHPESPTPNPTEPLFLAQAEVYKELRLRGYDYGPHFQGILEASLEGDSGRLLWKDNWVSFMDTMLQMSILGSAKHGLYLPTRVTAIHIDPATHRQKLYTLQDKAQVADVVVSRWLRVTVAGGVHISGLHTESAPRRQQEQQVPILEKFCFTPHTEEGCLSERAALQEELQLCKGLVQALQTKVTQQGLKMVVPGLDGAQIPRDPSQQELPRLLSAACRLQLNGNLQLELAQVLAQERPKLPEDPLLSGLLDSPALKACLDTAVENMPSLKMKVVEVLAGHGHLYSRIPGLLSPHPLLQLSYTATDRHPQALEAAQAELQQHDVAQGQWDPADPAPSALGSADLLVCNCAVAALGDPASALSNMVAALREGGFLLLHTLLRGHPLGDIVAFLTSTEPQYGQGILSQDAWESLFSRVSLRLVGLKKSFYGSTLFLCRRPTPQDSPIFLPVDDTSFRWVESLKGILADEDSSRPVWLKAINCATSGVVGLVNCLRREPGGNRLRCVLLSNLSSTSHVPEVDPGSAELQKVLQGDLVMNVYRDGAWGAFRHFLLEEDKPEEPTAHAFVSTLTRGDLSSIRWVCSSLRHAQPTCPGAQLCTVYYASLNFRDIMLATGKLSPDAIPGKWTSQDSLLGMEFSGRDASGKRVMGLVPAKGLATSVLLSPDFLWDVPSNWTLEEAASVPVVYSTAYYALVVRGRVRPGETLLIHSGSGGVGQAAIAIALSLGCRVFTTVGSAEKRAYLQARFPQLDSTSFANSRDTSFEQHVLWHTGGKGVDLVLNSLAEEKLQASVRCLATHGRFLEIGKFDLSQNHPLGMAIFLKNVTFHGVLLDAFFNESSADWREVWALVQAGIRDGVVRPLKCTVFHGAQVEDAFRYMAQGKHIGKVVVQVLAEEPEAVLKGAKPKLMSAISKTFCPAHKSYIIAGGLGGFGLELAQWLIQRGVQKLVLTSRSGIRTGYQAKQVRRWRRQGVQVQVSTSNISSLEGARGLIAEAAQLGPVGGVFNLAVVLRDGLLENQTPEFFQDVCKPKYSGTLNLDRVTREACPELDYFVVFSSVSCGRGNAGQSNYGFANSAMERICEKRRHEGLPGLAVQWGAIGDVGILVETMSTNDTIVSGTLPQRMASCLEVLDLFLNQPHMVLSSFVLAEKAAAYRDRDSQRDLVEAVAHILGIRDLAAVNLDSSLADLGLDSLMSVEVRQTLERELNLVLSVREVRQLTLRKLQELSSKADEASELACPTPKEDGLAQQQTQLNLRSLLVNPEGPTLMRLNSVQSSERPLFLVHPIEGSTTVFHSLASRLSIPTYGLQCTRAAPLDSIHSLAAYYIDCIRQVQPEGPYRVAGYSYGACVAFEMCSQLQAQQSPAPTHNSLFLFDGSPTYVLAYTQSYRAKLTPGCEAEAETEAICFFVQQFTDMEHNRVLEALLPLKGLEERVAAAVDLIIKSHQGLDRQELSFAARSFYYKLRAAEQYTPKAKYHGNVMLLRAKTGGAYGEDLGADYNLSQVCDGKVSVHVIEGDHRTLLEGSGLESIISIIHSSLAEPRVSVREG
smiles,measurement,setting,value
CC(C)(C)OC(=O)NCc1ccc(CNC(=O)c2[nH]cnc2C(=O)NCC(=O)OCc2ccccc2)cc1,IC50,[1],6.98 µM (active)
same,IC50,[2],4.49 µM (active)
O=C(NC1=NCCS1)c1ccc(-c2ccc(Cl)cc2)o1,EC50,[3],0.306 µM (active)
same,EC50,[4],21.4 µM (active)
Cc1ccc(-c2noc(-c3ccccc3C(=O)N3CCOCC3)n2)cc1,EC50,[5],> 380 µM (inactive)
same,AC50,[6],196 µM (active)
CC(=O)c1cnc2nc(SCc3ccccc3)nn2c1C,EC50,[3],0.131 µM (inconclusive)
same,EC50,[7],74.8 µM (active)
same,EC50,[4],0.116 µM (active)
COc1cccc(C2=NO[C@@H]3C(=O)N(c4ccc5c(c4)OCCO5)C(=O)[C@H]23)c1OC,EC50,[3],> 120 µM (not active)
same,EC50,[7],> 120 µM (not active)
same,EC50,[4],> 120 µM (not active)
CC(=O)C1=C(O)C(=O)N(c2ccc(Br)cn2)C1c1ccc(Br)cc1 (stereo not drawn),EC50,[3],0.112 µM (active)
same,EC50,[7],0.987 µM (active)
same,EC50,[4],> 120 µM (not active)
Nc1nn2c(-c3ccccc3)cc(O)nc2c1N=Nc1ccc(O)cc1,IC50,[8],60.1 µM (active)
same,EC50,[5],1.88 µM (active)
same,AC50,[6],3.91 µM (active)
Cc1cccc(NC(=O)c2cc([N+](=O)[O-])ccc2N2CCN(C)CC2)c1,IC50,[1],8.93 µM (active)
same,IC50,[2],11.3 µM (active)
COc1ccccc1NC(=O)c1ccccc1S(=O)(=O)c1ccc([N+](=O)[O-])cc1,IC50,[1],14.9 µM (active)
same,IC50,[2],8.19 µM (active)
Cc1nc(-c2ccc(S(=O)(=O)Oc3ccccc3Cl)s2)cs1,EC50,[3],12 µM (active)
same,EC50,[7],2.84 µM (active)
same,EC50,[4],13 µM (active)
O=C(NNc1ccc(Cl)cc1)c1c(F)cccc1Cl,EC50,[9],> 38 µM (not active)
same,EC50,[10],> 150 µM (inactive)
O=C(NCCCc1ccccc1)c1ccc([N+](=O)[O-])cc1Cl,IC50,[1],1.25 µM (active)
same,IC50,[2],1.31 µM (active)
COc1cc(C)c(Cl)c(C)c1S(=O)(=O)NC1CC(C)(C)NC(C)(C)C1,EC50,[3],> 120 µM (not active)
same,EC50,[7],> 120 µM (not active)
same,EC50,[4],15.2 µM (active)
Nc1ccc(S(=O)(=O)Nc2nccc(/C=C/c3ccc(Cl)cc3Cl)n2)cc1,EC50,[3],13.6 µM (active)
same,EC50,[7],> 120 µM (not active)
same,EC50,[4],> 120 µM (not active)
CCN1CCN(CCCOc2ccc(Cl)cc2Br)CC1,IC50,[8],68.8 µM (active)
same,EC50,[11],32.5 µM (active)
same,EC50,[12],1.6 µM (active)
CCc1nnc(NC(=O)C23CC4CC(CC(C4)C2)C3)s1,EC50,[3],45.6 µM (active)
same,EC50,[7],8.2 µM (active)
same,EC50,[4],19 µM (active)
CN(C)/C=C1\NC(=S)N(c2ccccc2)C1=O,IC50,[8],65.4 µM (active)
O=C(CN1CCN(c2ccc(O)cc2)CC1)Nc1ccc2c(c1)OCCCO2,IC50,[8],49.7 µM (active)
Cc1c(Br)c([N+](=O)[O-])nn1CC(=O)Nc1ccc(C(C)C)cc1,IC50,[1],3.18 µM (active)
same,IC50,[2],6.92 µM (active)
O=c1c2ccccc2cnn1CCOc1cccc(Br)c1,EC50,[3],33.9 µM (active)
same,EC50,[7],6.06 µM (active)
same,EC50,[4],27.5 µM (active)
COc1ccc(NC(=O)CN(c2ccc([N+](=O)[O-])cc2)S(=O)(=O)c2ccccc2)c(OC)c1,IC50,[1],4.43 µM (active)
same,IC50,[2],5.78 µM (active)
COc1ccc(-c2ccc(=O)n(CC(=O)Nc3cccc(O)c3)n2)cc1OC,EC50,[9],> 38 µM (not active)
same,EC50,[10],> 150 µM (inconclusive)
Cc1cc(O)ccc1Nc1nc(-c2cccnc2)cs1,EC50,[3],0.389 µM (active)
same,EC50,[7],6.4 µM (active)
same,EC50,[4],7.92 µM (active)
Cc1cc(C)nc(SC2=CS(=O)(=O)c3ccccc32)n1,EC50,[7],> 120 µM (not active)
same,EC50,[4],12.1 µM (active)
O=C(Nc1ccc(Cc2ccncc2)cc1)c1ccc(Cl)c([N+](=O)[O-])c1,IC50,[1],10.2 µM (active)
same,IC50,[2],10.9 µM (active)
O=C(CN1CCCCC1)Nc1scc2c1c(=O)oc1ccccc12,EC50,[3],16.1 µM (active)
same,EC50,[7],59.7 µM (active)
same,EC50,[4],> 120 µM (not active)
COc1ccc2c(c1)C(=C(C#N)C#N)C(=O)N2CCc1ccccc1,EC50,[5],21.2 µM (active)
same,AC50,[6],3.97 µM (active)
CCN1CCN(CCCOc2ccccc2-c2ccccc2)CC1,IC50,[8],96.9 µM (active)
O=[N+]([O-])c1ccc(SNc2ccccc2)c([N+](=O)[O-])c1,IC50,[1],10.4 µM (active)
same,IC50,[2],9.38 µM (active)
O=C(N/N=C/c1coc2ccc(Cl)cc2c1=O)c1ccc(O)cc1,IC50,[1],6.64 µM (active)
same,IC50,[2],4.84 µM (active)
same,EC50,[5],16.1 µM (active)
same,AC50,[6],> 380 µM (inactive)
COc1cc(/C=N/NC(=O)c2cc[n+]([O-])cc2)ccc1O,IC50,[8],32.7 µM (active)
CCn1c(-c2ccccc2)cs/c1=N\c1ccc(O)cc1,IC50,[8],31.7 µM (active)
C/C(CC(=O)Nc1ccccc1[N+](=O)[O-])=N\NC(=O)COc1ccccc1C,EC50,[5],3.85 µM (active)
same,AC50,[6],10.5 µM (active)
CN1CCN(/N=C/c2nc(-c3ccc(Cl)cc3)n3ccccc23)CC1,IC50,[8],27.1 µM (active)
Cc1ccc(NC(=O)CSc2nnc([C@@H](N)Cc3c[nH]c4ccccc34)o2)c(C)c1,EC50,[9],> 38 µM (not active)
same,EC50,[10],> 150 µM (inactive)
